Laboratory results: article PMC11618697 (Nature Communications, 2024)
Residues, ends and D or L forms follow the SMILES beside them. *: point of attachment. Cbz = O=C(OCc1ccccc1)*

Experiments:
Hut78 cells [1] = assay: IC50 assay, trypan blue exclusion count; format: cell-based, human
CDK9 [2] = biological target: T1, CDK9 (Homo sapiens, UniProt P50750); assay: Western blot of CDK9 in Hut78 cells; format: cell-based; settings: for degradation of CDK9 (immunoblot): Hut78 cells
CDK2, CDK6 and CDK7 = assay: Western blot of other CDKs in Hut78 cells; format: cell-based, human
HH tumors = assay: HH cell line derived xenograft in nude mice; format: in vivo
RARA mRNA = assay: Q-PCR of RARA in Hut78 cells; format: cell-based, human
RARα = assay: Western blot of RARα in Hut78 cells; format: cell-based, human
Hut78 cells [3] = assay: Cell proliferation assays; format: cell-based, human
[4] = test system: CD25, CD5 and CD7 on HH and Hut78 cells; assay: Flow cytometry of CD25, CD5 and CD7; format: cell-based, human; settings: 2 µM, 48 hours
[5] = test system: Foxp3 in HH and Hut78 cells; assay: Intracellular staining of Foxp3; format: cell-based, human; settings: 1 µM, 48 h
human CD25 = assay: IHC staining of human CD25 in Hut78 xenograft tumors; format: in vivo, NSG mice
HH cells [6] = assay: IC50 assay, trypan blue exclusion count; format: cell-based; settings: Homo sapiens, 48 h
293T cells = assay: Viability of normal cells, trypan blue; format: cell-based, human
CDK9 [7] = biological target: T1, CDK9; assay: DC50; format: cell-based; settings: CDK9 in Hut78 cells; 10 h
[8] = test system: CDK9 (55 kDa) and CDK9 (42 kDa) mRNA; assay: Q-PCR of CDK9 isoforms in Hut78 cells; format: cell-based, human
Hut78 xenografts = assay: Hut78 cell line derived xenograft in NSG mice; format: in vivo
Hut78 cell proteins = assay: Quantitative MS-based proteomics of Hut78 cells; format: cell-based, human
CDK9 [9] = biological target: T1, CDK9; assay: IHC staining of human CDK9 in Hut78 xenograft tumors; format: in vivo, NSG mice; settings: intraperitoneal injection
CDK9 [10] = biological target: T1, CDK9; format: cell-based; settings: Hut78; 10 μM for 2 h prior to 6-h of GT-02897 (100 nM)
CDK9 [11] = biological target: T1, CDK9; assay: Western blot of CDK9 in MOLT-4 cells; format: cell-based; settings: MOLT-4 acute lymphoblastic leukemia cell line
CDK9 [12] = assay: Western blot of CDK9 in HH cells; settings: HH cells (Fig 3b)
Hut78 cells [13] = assay: Cell viability / cell death at fixed dose, trypan blue; settings: 250 nM, trypan blue (Supplementary Fig 4a)
HH cells [14] = assay: Candidate PROTACs, cell viability by CCK8; format: cell-based, human; settings: CCK8 (Fig 3c)

T1 sequence (P50750 whole entry): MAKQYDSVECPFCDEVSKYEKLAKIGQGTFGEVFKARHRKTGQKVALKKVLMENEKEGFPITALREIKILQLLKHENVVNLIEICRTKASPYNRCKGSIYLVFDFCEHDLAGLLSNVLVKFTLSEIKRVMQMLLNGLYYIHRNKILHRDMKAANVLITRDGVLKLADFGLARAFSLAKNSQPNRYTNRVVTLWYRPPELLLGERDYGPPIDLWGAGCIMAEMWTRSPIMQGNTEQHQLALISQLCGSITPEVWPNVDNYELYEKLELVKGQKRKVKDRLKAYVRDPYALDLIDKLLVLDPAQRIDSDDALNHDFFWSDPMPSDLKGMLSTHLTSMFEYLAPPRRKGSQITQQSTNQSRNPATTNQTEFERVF

## CC(C)(C)c1cnc(CSc2cnc(NC(=O)C3CCN(CCCCCCCSc4cccc5c4C(=O)N(C4CCC(=O)NC4=O)C5=O)CC3)s2)o1 (centres unmarked) [Compound 26, N-(5-(((5-(tert-butyl)oxazol-2-yl)methyl)thio)thiazol-2-yl)-1-(7-((2-(2,6-dioxopiperidin-3-yl)-1,3-dioxoisoindolin-4-yl)thio)heptyl)piperidine-4-carboxamide]
Hut78 cells [1]; Homo sapiens, HuT78, 48 h
  IC50: 50 to 165 nM
CDK9 [2]
  degradation of CDK9 (immunoblot): strong degradation of CDK9
CDK2, CDK6 and CDK7
  protein levels of CDK2, CDK6 and CDK7 (immunoblot): without interfering protein levels of CDK2, CDK6 and CDK7

## CC(C)(C)c1cnc(CSc2cnc(NC(=O)C3CCN(CCCCCCCCSc4cccc5c4C(=O)N(C4CCC(=O)NC4=O)C5=O)CC3)s2)o1 (centres unmarked) [Compound 27, N-(5-(((5-(tert-butyl)oxazol-2-yl)methyl)thio)thiazol-2-yl)-1-(8-((2-(2,6-dioxopiperidin-3-yl)-1,3-dioxoisoindolin-4-yl)thio)octyl)piperidine-4-carboxamide]
Hut78 cells [1]; Homo sapiens, HuT78, 48 h
  IC50: 50 to 165 nM

## CN1CC[C@H](c2c(O)cc(O)c3c(=O)cc(-c4ccccc4Cl)oc23)[C@H](O)C1 [Flavopiridol]
HH tumors
  HH tumors in xenograft models: induced regression of HH tumors in vivo
RARA mRNA
  mRNA level of RARA: nor did it affect the mRNA level of RARA
RARα
  RARα protein (Western blot): did not yield upregulation of RARα

## CC1=C(/C=C/C(C)=C/C=C/C(C)=C/C(=O)O)C(C)(C)CCC1 [ATRA, all-trans retinoic acid]
Hut78 cells [3]; CTCL cells (Hut78, Fig 7g)
  CTCL cell growth and apoptosis: significant inhibition of cell growth without cell apoptosis
Hut78 cells [3]; Hut78 infected with shCDK9
  cell growth of shCDK9-infected Hut78 cells: more pronounced inhibition of cell growth
[4]
  CD5 and CD7 level (flow cytometry): unchanged
  CD25 expression (flow cytometry): emerging expression of CD25
[5]
  Expression of Foxp3: not changed
Human CD25
  CD25 expression in isolated tumor tissues (IHC): in vivo upregulation of CD25 expression

## CC(C)(C)c1cnc(CSc2cnc(NC(=O)C3CCN(CCCCCSc4cccc5c4CN(C4CCC(=O)NC4=O)C5=O)CC3)s2)o1 (centres unmarked) [Compound 23, N-(5-(((5-(tert-butyl)oxazol-2-yl)methyl)thio)thiazol-2-yl)-1-(5-((2-(2,6-dioxopiperidin-3-yl)-1-oxoisoindolin-4-yl)thio)pentyl)piperidine-4-carboxamide]
Hut78 cells [1]; Homo sapiens, HuT78, 48 h
  IC50: 49.7 nM
HH cells [6]
  IC50: 66.2 nM
293T cells
  killing effects on 293T cell: minimal killing effects
CDK9 [2]
  degradation of CDK9 (immunoblot): strong degradation of CDK9
CDK2, CDK6 and CDK7
  protein levels of CDK2, CDK6 and CDK7 (immunoblot): without interfering protein levels of CDK2, CDK6 and CDK7
CDK9 [7]
  DC50: 2.85 nM
[8]
  mRNA expression of CDK9 (42 kDa) and CDK9 (55 kDa) isoforms: not affected
Hut78 xenografts; Hut78 xenograft
  CTCL tumors in vivo, co-administration with ATRA: more significant inhibition of CTCL tumors in vivo
Hut78 xenografts; every other day, intraperitoneal or subcutaneous injection, 14 days
  Hut78 cell growth in vivo: significantly suppress Hut78 cell growth in vivo
Hut78 xenografts; shCDK9-1 or shCDK9-2
  growth inhibition effect in CDK9-depleted (shRNA) Hut78 xenografts: significantly impaired the growth inhibition effect of GT-02897
Hut78 cell proteins; 6 h after treatment, 5,689 proteins
  CDK9 abundance in quantitative proteomics: one of the most significantly downregulated proteins
Hut78 cell proteins; proteomics 12 hours, validated by western blot
  RARα protein: significantly upregulated
Hut78 cells [3]; Hut78, in vitro, cell number by trypan blue
  inhibition of CTCL cells, co-administration with ATRA: more significant inhibition of CTCL cells
CDK9 [9]
  CDK9 in isolated tumor tissues (IHC): in vivo degradation of CDK9 by GT-02897 was further confirmed

## CC(C)C[C@@H](C=O)NC(=O)[C@H](CC(C)C)NC(=O)[C@H](CC(C)C)NC(=O)OCc1ccccc1 [MG132, reference compound] (Cbz-Leu-Leu-Leu-aldehyde)
CDK9 [2]; Hut78, GT-02897 in presence or absence of MG132
  effect of MG132 on CDK9 loss induced by GT-02897: reverted the expression of CDK9 protein

## O=C1NCCc2[nH]c(-c3ccncc3)cc21 [PHA-767491, reference compound]
Hut78 cells [1]; Hut78 cells, 48-h, trypan blue
  IC50: 926 nM
CDK9 [10]
  effect of pre-treatment on degradation of CDK9 by GT-02897: significantly dampened the degradation of CDK9

## CC(C)(C)c1cnc(CSc2cnc(NC(=O)C3CCN(CC(=O)NCCOCCOCCOCCNc4cccc5c4C(=O)N(C4CCC(=O)NC4=O)C5=O)CC3)s2)o1 (centres unmarked) [THAL-SNS-032]
CDK9 [11]
  CDK9 protein (Western blot): induced significant loss of CDK9
CDK9 [12]
  CDK9 protein (Western blot): did not disturb CDK9 protein
Hut78 cells [13]
  killing in CTCL cells: nor did it display effective killing

## CC(C)(C)c1cnc(CSc2cnc(NC(=O)C3CCN(C(=O)COCCOCCSc4cccc5c4C(=O)N(C4CCC(=O)NC4=O)C5=O)CC3)s2)o1 (centres unmarked) [Compound 19, N-(5-(((5-(tert-butyl)oxazol-2-yl)methyl)thio)thiazol-2-yl)-1-(2-(2-(2-((2-(2,6-dioxopiperidin-3-yl)-1,3-dioxoisoindolin-4-yl)thio)ethoxy)ethoxy)acetyl)piperidine-4-carboxamide]
Hut78 cells [1]; Homo sapiens, HuT78, 48 h
  IC50: 404 nM
HH cells [14]
  concentration displaying significant killing effects: below 500 nM

## CC(C)(C)c1cnc(CSc2cnc(NC(=O)C3CCNCC3)s2)o1 [SNS-032]
HH tumors
  HH tumors in xenograft models: induced regression of HH tumors in vivo
CDK9 [10]
  effect of pre-treatment on degradation of CDK9 by GT-02897: significantly dampened the degradation of CDK9

## CC(C)(C)c1cnc(CSc2cnc(NC(=O)C3CCN(CCCCSc4cccc5c4C(=O)N(C4CCC(=O)NC4=O)C5=O)CC3)s2)o1 (centres unmarked) [Compound 25, N-(5-(((5-(tert-butyl)oxazol-2-yl)methyl)thio)thiazol-2-yl)-1-(4-((2-(2,6-dioxopiperidin-3-yl)-1,3-dioxoisoindolin-4-yl)thio)butyl)piperidine-4-carboxamide]
Hut78 cells [1]; Homo sapiens, HuT78, 48 h
  IC50: 50 to 165 nM
CDK9 [2]
  degradation of CDK9 (immunoblot): strong degradation of CDK9
CDK2, CDK6 and CDK7
  protein levels of CDK2, CDK6 and CDK7 (immunoblot): without interfering protein levels of CDK2, CDK6 and CDK7

## CC(C)(C)c1cnc(CSc2cnc(NC(=O)C3CCN(CCCCCCCCSc4cccc5c4CN(C4CCC(=O)NC4=O)C5=O)CC3)s2)o1 (centres unmarked) [Compound 24, N-(5-(((5-(tert-butyl)oxazol-2-yl)methyl)thio)thiazol-2-yl)-1-(8-((2-(2,6-dioxopiperidin-3-yl)-1-oxoisoindolin-4-yl)thio)octyl)piperidine-4-carboxamide]
CDK9 [2]
  degradation of CDK9 (immunoblot): strong degradation of CDK9
CDK2, CDK6 and CDK7
  protein levels of CDK2, CDK6 and CDK7 (immunoblot): without interfering protein levels of CDK2, CDK6 and CDK7

## CC(C)(C)c1cnc(CSc2cnc(NC(=O)C3CCN(C(=O)CCCSc4cccc5c4C(=O)N(C4CCC(=O)NC4=O)C5=O)CC3)s2)o1 (centres unmarked) [Compound 9, N-(5-(((5-(tert-butyl)oxazol-2-yl)methyl)thio)thiazol-2-yl)-1-(4-((2-(2,6-dioxopiperidin-3-yl)-1,3-dioxoisoindolin-4-yl)thio)butanoyl)piperidine-4-carboxamide]
Hut78 cells [1]; Homo sapiens, HuT78, 48 h
  IC50: 339 nM
HH cells [14]
  concentration displaying significant killing effects: below 500 nM
